Test results reported in patent US8835440B2, “Cyclic pyrimidin-4-carboxamides as CCR2 receptor antagonists for treatment of inflammation, asthma and COPD” (Boehringer Ingelheim International GmbH, priority 2008, dated 2014).

Target: T1, CCR2 (Homo sapiens, UniProt P41597)
T1 construct: Membranes were prepared from THP-1 cells; endogenous in cells; host or cells: THP-1 cells (membrane preparation)
T1 sequence (P41597 1-360 isoform P41597-2): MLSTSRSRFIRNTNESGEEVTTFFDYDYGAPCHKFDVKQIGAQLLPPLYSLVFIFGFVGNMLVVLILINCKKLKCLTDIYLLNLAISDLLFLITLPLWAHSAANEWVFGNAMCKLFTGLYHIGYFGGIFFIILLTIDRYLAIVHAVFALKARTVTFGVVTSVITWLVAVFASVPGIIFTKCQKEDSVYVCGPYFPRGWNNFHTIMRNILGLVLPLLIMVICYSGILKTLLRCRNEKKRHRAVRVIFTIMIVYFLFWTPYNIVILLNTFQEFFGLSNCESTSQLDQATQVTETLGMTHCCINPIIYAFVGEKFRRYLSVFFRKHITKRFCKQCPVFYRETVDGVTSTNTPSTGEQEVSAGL
Test: CCR2 receptor membrane binding assay ([125I]MCP-1, THP-1 cell membranes, SPA beads)
Conditions: for Ki: dissociation constant hKi, [125I]MCP-1 binding to THP-1 membranes; for remaining activity at 10 µM: @ 10 μM test compound, THP-1 membranes, read-out: CCR2 % ctrl @ 10 μM
Summary of the method: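 Human THP-1 monocytic cell membranes, pre-coupled to WGA-PVT SPA beads, were incubated with compound and [125I]MCP-1 (ca. 25000 cpm) in 25 mM HEPES pH 7.2, 5 mM MgCl2, 0.5 mM CaCl2, 0.2% BSA, at 1% DMSO final. Bound radioactivity was counted after 8 h, and Ki was obtained by iterative mass-action fitting.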

| Compound | Ki [nM] | remaining activity at 10 µM [%] |
| --- | --- | --- |
| COC1CCN(C2CCN(C(=O)c3ncnc(NCC4CCCN(c5ccccc5)C4)c3C)CC2)CC1 (stereo not drawn) [Example 97] | 665 | 17 |
| Cc1c(NCc2ccc(C(C)(C)C)cc2)ncnc1C(=O)N1CCC(N(C)C2CCOCC2)CC1 [Example 275a] | 29 | 0 |
| Cc1c(NC[C@@H]2C[C@H]2c2ccccc2)ncnc1C(=O)N1CCC(N2CCC(N(C)S(C)(=O)=O)CC2)CC1 [Example 152] | 44 | 7 |
| Cc1c(NCC2CCN(c3ccccc3)C2)ncnc1C(=O)N1CCC(N2CCC(NS(C)(=O)=O)CC2)CC1 (stereo not drawn) [Example 74] | 71 | 2 |
| COC1COCCC1N(C)C1CCN(C(=O)c2ncnc(NCC3CCC[C@@H](c4ccccc4)C3)c2C)CC1 (stereo partly drawn) [Example 228h] | 5 | 0 |
| Cc1c(OCc2ccc(C(C)(C)C)cc2)ncnc1C(=O)N1CCC(N2CCC(N(C)S(C)(=O)=O)CC2)CC1 [Example 296] | 69 | 3 |
| Cc1c(NCC2CCc3ccccc3N2)ncnc1C(=O)N1CCC(N2CCC(N(C)S(C)(=O)=O)CC2)CC1 (stereo not drawn) [Example 159gc] | 26 |  |
| C#Cc1c(NC[C@H]2CCC[C@@H](c3ccccc3)C2)ncnc1C(=O)N1CCC(N2CCC(N(C)S(C)(=O)=O)CC2)CC1 [Example 275dl] | 372 |  |
| CCS(=O)(=O)N(C)C1CCN(C2CCN(C(=O)c3ncnc(NC[C@H]4CCN(c5ccccc5)C4)c3C)CC2)CC1 [Example 41] | 11 | 6 |
| Cc1c(NCC2(c3ccccc3)CCCCC2)ncnc1C(=O)N1CCC(N2CCC(N(C)S(C)(=O)=O)CC2)CC1 [Example 159t] | 1200 |  |
| Cc1c(NCC2CCC(c3cccc(C(F)(F)F)c3)O2)ncnc1C(=O)N1CCC(N2CCC(N(C)S(C)(=O)=O)CC2)CC1 (stereo not drawn) [Example 159pa] | 32 |  |
| COc1nc(NCC2CCCC(c3ccccc3)C2)c(C)c(C(=O)N2CCC(N3CCC(N(C)S(C)(=O)=O)CC3)CC2)n1 (stereo not drawn) [Example 159a] | 10 |  |
| COC1COCCC1N(C)C1CCN(C(=O)c2ncnc(NC[C@H]3CCC[C@@H](c4ccccc4)C3)c2C)CC1 (stereo partly drawn) [Example 275dj] | 4 |  |
| COC1COCCC1NC1CCN(C(=O)c2ncnc(NCC3Cc4ccccc4C3)c2C)CC1 (stereo not drawn) [Example 159fc] | 13 |  |
| CO[C@@H]1COCC[C@@H]1NC1CCN(C(=O)c2ncnc(NC[C@H]3CCC[C@@H](c4ccc(C)o4)C3)c2C)CC1 [Example 275da] | 4 |  |
| CCOC(=O)N1CCC(NC2CCN(C(=O)c3ncnc(NCc4ccc(C(C)(C)C)cc4)c3C)CC2)C(OC)C1 (stereo not drawn) [Example 228e] | 3720 | 40 |
| Cc1c(NCC2CCCN(c3ccc(C(F)(F)F)cc3)C2)ncnc1C(=O)N1CCC(N2CCC(N(C)S(C)(=O)=O)CC2)CC1 (stereo not drawn) [Example 159w] | 9 |  |
| Cc1nc(NCC2CCC(c3ccc(C(F)(F)F)cc3)O2)c(C)c(C(=O)N2CCC(N3CCC(N(C)S(C)(=O)=O)CC3)CC2)n1 (stereo not drawn) [Example 159ib] | 15 |  |
| Cc1c(NCc2ccc(C(C)(C)C)cc2)ncnc1C(=O)N1CCCN(C2CCOCC2)CC1 [Example 288] | 738 | 13 |
| Cc1c(NCc2ccc(C(C)(C)C)cc2)ncnc1C(=O)N1CCC(N2CCc3ncc(C(F)(F)F)cc3C2)CC1 [Example 228gg] | 1030 |  |
| Cc1c(NCC2CCC(c3ccccc3)C2)ncnc1C(=O)N1CCC(N2CCC(N(C)S(C)(=O)=O)CC2)CC1 (stereo not drawn) [Example 159d] | 15 |  |
| Cc1nc(NCC2COc3ccccc3C2)c(C)c(C(=O)N2CCC(N3CCC(NS(C)(=O)=O)CC3)CC2)n1 (stereo not drawn) [Example 90] | 127 | 10 |
| Cc1c(NCC2CCc3ccccc3O2)ncnc1C(=O)N1CCC(N2CCC(N(C)S(C)(=O)=O)CC2)CC1 (stereo not drawn) [Example 159ob] | 118 |  |

Further lines, results first:

| Ki [nM] | remaining activity at 10 µM [%] | Compound |
| --- | --- | --- |
| 12 |  | COC1CCN(C2CCN(C(=O)c3ncnc(NCC4CCCC(c5ccc(Cl)cc5)C4)c3C)CC2)CC1 (stereo not drawn) [Example 159lb] |
| 18 | 4 | Cc1c(NCCc2ccc(Cl)c(Cl)c2)ncnc1C(=O)N1CCC(N2CCC(N(C)S(C)(=O)=O)CC2)CC1 [Example 53] |
| 149 | 6 | Cc1c(NCCc2ccc(Cl)c(Cl)c2)ncnc1C(=O)N1CCC(N2CCCC(O)CC2)CC1 (stereo not drawn) [Example 247] |
| 175 | 12 | Cc1c(NCc2ccc(C(C)(C)C)cc2)ncnc1C(=O)N1CCC(N2CCOCC2)CC1 [Example 52] |
| 3310 | 46 | Cc1c(NCC2CCN(c3ccccc3)CC2)ncnc1C(=O)N1CCC(N2CCC(O)CC2)CC1 [Example 113] |
| 2320 | 33 | Cc1c(NCc2cccc(-c3ccccc3)c2)ncnc1C(=O)N1CCC(N2CCC(O)C2)CC1 (stereo not drawn) [Example 239] |
| 487 | 20 | Cc1nc(NCc2ccc(C(C)(C)C)cc2)c(C)c(C(=O)N2CCC(N3CC[C@@H](C(N)=O)C3)CC2)n1 [Example 267] |
| 200 | 17 | Cc1cc(CNc2ncnc(C(=O)N3CCC(N4CCC(N(C)S(C)(=O)=O)CC4)CC3)c2C)ccc1F [Example 55] |
| 239 | 14 | Cc1c(NCc2ccc(Cl)c(Cl)c2)ncnc1C(=O)N1CCC(N2CCC(O)C2)CC1 (stereo not drawn) [Example 238] |
| 555 | 15 | Cc1c(NCc2ccc(Cl)c(Cl)c2)ncnc1C(=O)N1CCC(N2CCCC(O)CC2)CC1 (stereo not drawn) [Example 245] |
| 198 | 16 | Cc1c(NCc2ccc(C(F)(F)F)c(Cl)c2)ncnc1C(=O)N1CCC(N2CCC(O)CC2)CC1 [Example 116] |
| 232 | 12 | Cc1c(NCc2ccc(Cl)c(Cl)c2)ncnc1C(=O)N1CCC(N2CCOCC2)CC1 [Example 107] |
| 664 | 29 | Cc1c(NCCc2ccc(C(F)(F)F)cc2)ncnc1C(=O)N1CCC(N2CCC(O)CC2)CC1 [Example 12] |
| 41 | 3 | CCS(=O)(=O)NC1CCN(C2CCN(C(=O)c3ncnc(NCc4ccc(C(C)(C)C)cc4)c3C)CC2)CC1 [Example 264] |
| 665 | 35 | Cc1c(NCc2ccc(Cl)cc2)ncnc1C(=O)N1CCC(N2CCCCC2)CC1 [Example 127] |
| 104 | 7 | Cc1c(NCCc2ccc(Cl)c(Cl)c2)ncnc1C(=O)N1CCC(N2CCOC(c3ccccc3)C2)CC1 (stereo not drawn) [Example 240] |
| 281 | 8 | Cc1c(NCc2ccc(C(C)(C)C)cc2)ncnc1C(=O)N1CCC(N2CC(C)OC(C)C2)CC1 (stereo not drawn) [Example 218] |

| Ki [nM] | remaining activity at 10 µM [%] | Compound |
| --- | --- | --- |
| 445 | 26 | Cc1c(NCc2ccc(F)c(Cl)c2)ncnc1C(=O)N1CCC(N2CCCCC2)CC1 [Example 128] |
| 366 | 24 | Cc1c(NCc2ccc(Cl)c(Cl)c2)ncnc1C(=O)N1CCC(N2CCC(F)(F)CC2)CC1 [Example 244] |
| 147 |  | Cc1c(NCC2CCc3ccccc32)ncnc1C(=O)N1CCC(N2CCC(N(C)S(C)(=O)=O)CC2)CC1 (stereo not drawn) [Example 159x] |
| 2290 | 54 | Cc1c(NCCc2ccc(Cl)c(Cl)c2)ncnc1C(=O)N1CCC(N2CCC[C@H](NS(C)(=O)=O)C2)CC1 [Example 169] |
| 13 |  | Cc1c(NC[C@H]2C[C@H](c3ccc(Cl)cc3)C2)ncnc1C(=O)N1CCC(N2CCC(N(C)S(C)(=O)=O)CC2)CC1 [Example 159tb] |
| 227 | 16 | Cc1c(NCCc2ccc(Cl)c(Cl)c2)ncnc1C(=O)N1CCC(N2CC[C@H](O)C2)CC1 [Example 166] |
| 1560 | 32 | Cc1c(NCc2ccc(C(C)(C)C)cc2)ncnc1C(=O)N1CCCC(N2CCCC2)CC1 (stereo not drawn) [Example 163] |
| 4030 | 58 | Cc1c(NC2COc3ccccc3C2)ncnc1C(=O)N1CCC(N2CCC(O)CC2)CC1 (stereo not drawn) [Example 24] |
| 516 | 21 | Cc1c(NCc2ccc(Cl)c(Cl)c2)ncnc1C(=O)N1CCC(N2CCCOCC2)CC1 [Example 242] |
| 138 | 8 | Cc1c(NCc2cccc(Cl)c2)ncnc1C(=O)N1CCC(N2CCC(N(C)S(C)(=O)=O)CC2)CC1 [Example 66] |
| 33 | 5 | Cc1c(NCc2ccc(Cl)c(Cl)c2)ncnc1C(=O)N1CCC(N2CCC(N(C)S(C)(=O)=O)CC2)CC1 [Example 255] |
| 599 | 17 | Cc1c(OCc2ccc(C(C)(C)C)cc2)ncnc1C(=O)N1CCC(N2CCOCC2)CC1 [Example 298] |
| 1590 | 43 | Cc1c(NCc2cccc(C(F)(F)F)c2)ncnc1C(=O)N1CCC(N2CCC(O)CC2)CC1 [Example 4] |
| 1310 | 31 | Cc1c(NCc2ccc(C(C)(C)C)cc2)ncnc1C(=O)N1CCC(N2CC(N(C)S(C)(=O)=O)C2)CC1 [Example 222] |
| 1840 | 45 | CC(=O)N1CCN(C2CCN(C(=O)c3ncnc(NCCc4ccc(Cl)c(Cl)c4)c3C)CC2)CC1 [Example 230] |
| 466 | 24 | Cc1c(NC2CCC(c3ccccc3)CC2)ncnc1C(=O)N1CCC(N2CCC(O)CC2)CC1 (stereo not drawn) [Example 22] |
